PMC4499186, “Structure of the stationary phase survival protein YuiC from B.subtilis” (BMC Structural Biology, 2015)

Target: T1, YuiC (degraded K32-E218) (Bacillus subtilis, UniProt O32108)
T1 construct: mature protein K32-E218, signal peptide removed, E. coli Rosetta 2 (DE3), His-tag cut by TEV leaving GIDPFT; partially proteolysed at or close to R52; residues 72-217 modelled; domain-swapped dimer, site formed by both chains
T1 sequence (O32108 32-218): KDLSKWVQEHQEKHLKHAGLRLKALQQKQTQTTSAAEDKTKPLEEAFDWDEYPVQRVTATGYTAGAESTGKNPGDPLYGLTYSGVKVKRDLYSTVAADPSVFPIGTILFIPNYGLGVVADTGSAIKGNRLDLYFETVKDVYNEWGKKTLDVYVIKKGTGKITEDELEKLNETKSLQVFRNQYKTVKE
Assay: X-ray crystal structure, […] Å
Format: binding
Details: 5 mM NAG in crystallisation, pH 6.0; bound at -2 site, one per chain

SMILES: CC(=O)N[C@H]1C(O)O[C@H](CO)[C@@H](O)[C@@H]1O (stereo partly shown) [NAG, N-acetylglucosamine]
- X-ray crystal structure, 1.21 Å: Crystallisation of YuiC in the presence of NAG gives a structure with a single
